Measurements published in US20260256143A1, “HERBICIDAL COMPOSITION AND METHOD FOR CONTROLLING WEEDS” (Enko Chem, Inc., priority 2023, published 2026).
Read-outs that look alike come from different tables or passages of the source.

Legend:
ECHCG [1] = experiment: Greenhouse post-emergence foliar test (Example 72); format: in vivo; settings: Echinochloa crus-galli, 336 h, read-out: % Visual growth inhibition (ECHCG)
Description: (§1) Compound 1 was tested at several doses for foliar weed control efficacy by itself or in combination with other herbicides.
(§2) The weed seeds were sown in 10″×20″ trays and propagated up to the transplanting stage which is 1-2 emerging leaves. One plant was then transplanted into 7×7×8 cm pots and sprayed with the compounds when plants reached the 3-4 true leaf stage for grass species or 10-15 cm for broadleaf species. The plants were propagated in a greenhouse with 26-28° C. day, 20-22° C. night temperature at 50-60%0 relative humidity and supplemental light using high pressure sodium grow lights when necessary. Three weeks after sowing, plants were sprayed with the test compound solution in a laboratory spray chamber fitted with 8003 even fan nozzle calibrated to deliver 187 L ha^−1 at 269 kPa. All treatments included the following inert ingredients in the final formulation; […] (AGRI-DEX®, Helena Agri), 2.5% Ammonium sulphate (w/v), and 0.1% Tween-20 (v/v). Plants were evaluated for percentage visual growth inhibition compared to treated control, 14 days after treatment (DAT).

AMATU [2] = experiment: Greenhouse post-emergence foliar test (Example 72); format: in vivo, Amaranthus rudis; settings: Amaranthus tuberculatus, 336 h, read-out: % Visual growth inhibition (AMATU)
Description: as §1, §2

ALOMY = experiment: Greenhouse pre-emergence residual test (Example 73); format: in vivo, Alopecurus myosuroides; settings: 17-21 DAT
Description: (§3) Compound 1 was tested at several doses for residual weed control efficacy by itself or in combination as a tank mix with commercial herbicides. The following commercial products were used in tank mix with a 10% active emulsifiable concentrate formulation of Compound 1: S-metolachlor (Dual Magnum®, Syngenta), mesotrione (Callisto®, Syngenta), pyroxasulfone (Zidua® SC, BASF), metribuzin (Tricor DF™, United Phosphorus, Inc).
(§4) Accordingly, weed seeds were planted in 2-inch pots containing custom field soil mix (sandy loam with 3.3% organic matter, pH 7.0) and covered with a fine layer of the same soil. Three replicate pots were treated with each compound. Treatment consisting of the above formulation excluding active compound was applied as a treatment control (TC). Pots were treated with the test compound solution in a laboratory spray chamber fitted with 8003 even fan nozzles calibrated to deliver 187-200 L ha^−1 at 269 kPa. All treatments included the following inert ingredients in the final formulation; 1% Crop Oil Concentrate (v/v) (AGRI-DEX, Helena Agri) and 2.5% Ammonium sulphate (w/v). Compound 1 was incorporated into the soil by simulating rainfall equivalent to 0.2 mm using the same track sprayer. Subsequently, pots were irrigated from the bottom until weed control evaluation. Pots were placed back in the greenhouse and evaluated for percentage visual growth and germination inhibition compared to TC 17-21 days after treatment (DAT). Complete growth inhibition is represented by 100%.

CHEAL [3] = experiment: as above; format: in vivo, Chenopodium album; settings: 17-21 DAT
Description: as §3, §4

AMAPA [4] = experiment: as above; format: in vivo, Amaranthus palmeri; settings: 17-21 DAT
Description: as §3, §4

DIGSA = experiment: as above; format: in vivo, Digitaria sanguinalis; settings: 17-21 DAT
Description: as §3, §4

ECHCG [5] = experiment: as above; format: in vivo, Echinochloa crus-galli; settings: 17-21 DAT
Description: as §3, §4

AMATU [6] = experiment: as above; format: in vivo, Amaranthus rudis; settings: 17-21 DAT
Description: as §3, §4

KCHSC = experiment: as above; format: in vivo, Bassia scoparia; settings: 17-21 DAT
Description: as §3, §4

ABUTH = experiment: Field test, post-emergence foliar application (Example 70); format: in vivo, Abutilon theophrasti; settings: Loc 13; glyphosate 1120 g a.i./ha; 2 weeks after application
Description: (§5) Compound 1 and Compound 1 mixed with glyphosate were tested at different field locations to evaluate the herbicides efficacy for controlling weeds by post-emergence foliar application. All herbicide treatments were applied with a backpack CO2 pressurized sprayer at 190 L/ha volume. The applications were made after the weeds emerged and reached the 5 to 12 cm size range. Herbicide treatments included Compound 1 formulated as 10% emulsified concentrate, glyphosate as a commercial formulation (Roundup Power Max, Monsanto), or a mixture of Compound 1 and glyphosate products prepared as a “tank-mix” before the field application. All herbicide field spray solution included ammonium sulfate and concentrated crop oil adjuvant to a final solution concentration of 2% and 1% respectively. Different weeds species were assessed at the separate field locations. For each species, the herbicide efficacy to control weeds, assessed as % of dead plants relative to the untreated control plots, was evaluated at 2 weeks after the herbicide application to account for weed re-growth.

CHEAL [7] = experiment: as above; format: in vivo, Chenopodium album; settings: glyphosate 1120 g a.i./ha, 2 weeks after application
Description: as §5

SETFA = experiment: as above; format: in vivo, Setaria faberi; settings: Loc 15; glyphosate 1120 g a.i./ha; 2 weeks after application
Description: as §5

AMATU [8] = experiment: as above; format: in vivo, Amaranthus rudis; settings: glyphosate 1120 g a.i./ha, 2 weeks after application
Description: as §5

AMAPA [9] = experiment: as above; format: in vivo, Amaranthus palmeri; settings: Loc 13; glyphosate 1120 g a.i./ha; 2 weeks after application
Description: as §5

## O=C(O)COc1ccc(Cl)cc1Cl [2,4-D acid, 2,4-dichlorophenoxyacetic acid]
ECHCG [1]
  inhibition at 280 g/ha: 10%
AMATU [2]
  inhibition at 280 g/ha: 89%

## CCc1cccc(C)c1N(C(=O)CCl)[C@@H](C)COC [S-metolachlor]
ALOMY; Dose 1000 g a.i./ha
  Pre-emergence percent weed growth and germination inhibition ALOMY: 30%
CHEAL [3]; Dose 1000 g a.i./ha
  Pre-emergence percent weed growth and germination inhibition CHEAL: 50%
AMAPA [4]; Dose 1000 g a.i./ha
  Pre-emergence percent weed growth and germination inhibition AMAPA: 65%
DIGSA; Dose 1000 g a.i./ha
  Pre-emergence percent weed growth and germination inhibition DIGSA: 80%
ECHCG [5]; Dose 1000 g a.i./ha
  Pre-emergence percent weed growth and germination inhibition ECHCG: 93%
AMATU [6]; Dose 1000 g a.i./ha
  Pre-emergence percent weed growth and germination inhibition AMATU: 80%
KCHSC; Dose 1000 g a.i./ha
  Pre-emergence percent weed growth and germination inhibition KCHSC: 57%

## COc1c(Cl)ccc(Cl)c1C(=O)O [dicamba, 3,6-dichloro-2-methoxybenzoic acid]
ECHCG [1]; Dose 280 g a.i./ha, 14 DAT
  inhibition at 280 g/ha: 5%
AMATU [2]; Dose 280 g a.i./ha, 14 DAT
  inhibition at 280 g/ha: 74%

## CP(=O)(O)CCC(N)C(=O)O (stereo not shown) [glufosinate]
ECHCG [1]
  inhibition at 450 g/ha: 41%
AMATU [2]
  inhibition at 450 g/ha: 96%

## O=C(O)CNCP(=O)(O)O [glyphosate]
ABUTH
  % dead ABUTH: 85%
CHEAL [7]; Loc 11
  % dead CHEAL: 88%
CHEAL [7]; Loc 14
  % dead CHEAL: 88%
ECHCG [1]
  inhibition at 860 g/ha: 84%
SETFA
  % dead SETFA: 100%
AMATU [8]; Loc 11
  % dead AMATU: 88%
AMATU [8]; Loc 12
  % dead AMATU: 50%
AMATU [8]; Loc 14
  % dead AMATU: 32%
AMATU [8]; Loc 15
  % dead AMATU: 12%
AMAPA [9]
  % dead AMAPA: 13%
AMATU [2]
  inhibition at 1000 g/ha: 60%

## CS(=O)(=O)c1ccc(C(=O)C2C(=O)CCCC2=O)c([N+](=O)[O-])c1 [mesotrione]
ALOMY; Alopecurus myosuroides, pre-emergence, Dose 210 g a.i./ha, read-out: Pre-emergence percent weed growth and germination inhibition ALOMY
  inhibition at 210 g/ha: 20%
CHEAL [3]; Chenopodium album, pre-emergence, Dose 210 g a.i./ha, read-out: Pre-emergence percent weed growth and germination inhibition CHEAL
  inhibition at 210 g/ha: 100%
AMAPA [4]; Amaranthus palmeri, pre-emergence, Dose 210 g a.i./ha, read-out: Pre-emergence percent weed growth and germination inhibition AMAPA
  inhibition at 210 g/ha: 53%
DIGSA; Digitaria sanguinalis, pre-emergence, Dose 210 g a.i./ha, read-out: Pre-emergence percent weed growth and germination inhibition DIGSA
  inhibition at 210 g/ha: 82%
ECHCG [5]; Echinochloa crus-galli, pre-emergence, Dose 210 g a.i./ha, read-out: Pre-emergence percent weed growth and germination inhibition ECHCG
  inhibition at 210 g/ha: 33%
AMATU [6]; Amaranthus tuberculatus, pre-emergence, Dose 210 g a.i./ha, read-out: Pre-emergence percent weed growth and germination inhibition AMATU
  inhibition at 210 g/ha: 75%
ECHCG [1]; Dose 105 g a.i./ha, 14 DAT
  inhibition at 105 g/ha: 95%
AMATU [2]; Dose 105 g a.i./ha, 14 DAT
  inhibition at 105 g/ha: 61%
KCHSC; Bassia scoparia, pre-emergence, Dose 210 g a.i./ha, read-out: Pre-emergence percent weed growth and germination inhibition KCHSC
  inhibition at 210 g/ha: 77%

## CSc1nnc(C(C)(C)C)c(=O)n1N [metribuzin]
ALOMY; Alopecurus myosuroides, pre-emergence, Dose 200 g a.i./ha, read-out: Pre-emergence percent weed growth and germination inhibition ALOMY
  inhibition at 200 g/ha: 12%
CHEAL [3]; Chenopodium album, pre-emergence, Dose 200 g a.i./ha, read-out: Pre-emergence percent weed growth and germination inhibition CHEAL
  inhibition at 200 g/ha: 100%
AMAPA [4]; Amaranthus palmeri, pre-emergence, Dose 200 g a.i./ha, read-out: Pre-emergence percent weed growth and germination inhibition AMAPA
  inhibition at 200 g/ha: 20%
DIGSA; Digitaria sanguinalis, pre-emergence, Dose 200 g a.i./ha, read-out: Pre-emergence percent weed growth and germination inhibition DIGSA
  inhibition at 200 g/ha: 13%
ECHCG [5]; Echinochloa crus-galli, pre-emergence, Dose 200 g a.i./ha, read-out: Pre-emergence percent weed growth and germination inhibition ECHCG
  inhibition at 200 g/ha: 12%
AMATU [6]; Amaranthus tuberculatus, pre-emergence, Dose 200 g a.i./ha, read-out: Pre-emergence percent weed growth and germination inhibition AMATU
  inhibition at 200 g/ha: 65%
KCHSC; Bassia scoparia, pre-emergence, Dose 200 g a.i./ha, read-out: Pre-emergence percent weed growth and germination inhibition KCHSC
  inhibition at 200 g/ha: 100%
